Data: the NIST ThermoML archive (doi:10.1021/je600565m)
Numbers after ± are expanded uncertainties.

Assay: xn = mol fraction of the nth substance listed
Conditions: 101 kPa, Liquid

**Q.** For `CCOC(C)=O` [ethyl acetate] + O, which viscosity (298.15 K, x2 = 0.0258) is on record?
**A.** The viscosity was 0.436 ± 0.01 mPa·s.

**Q.** What about the mass density (298.15 K, x2 = 0.0269) of the same molecule?
**A.** The mass density was 895.32 ± 0.23 kg/m3.

**Q.** And the viscosity (298.15 K, x2 = 0.045)?
**A.** The viscosity was 0.444 ± 0.011 mPa·s.

**Q.** What about the mass density (298.15 K, x2 = 0.0469) of the same molecule?
**A.** The mass density was 896.13 ± 0.23 kg/m3.

**Q.** And the mass density (298.15 K, x2 = 0.0722)?
**A.** The mass density was 897.09 ± 0.23 kg/m3.

**Q.** And the viscosity (298.15 K, x2 = 0.0748)?
**A.** Its viscosity is 0.456 ± 0.011 mPa·s.

**Q.** What about the viscosity (298.15 K, x2 = 0.0853) of the same molecule?
**A.** The viscosity was 0.46 ± 0.011 mPa·s.

**Q.** What about the mass density (298.15 K, x2 = 0.0892) of the same molecule?
**A.** The mass density was 897.9 ± 0.23 kg/m3.

**Q.** And the mass density (298.15 K, x2 = 0.1045)?
**A.** Its mass density is 898.48 ± 0.23 kg/m3.

**Q.** And the viscosity (298.15 K, x2 = 0.1053)?
**A.** Its viscosity is 0.468 ± 0.011 mPa·s.

**Q.** And the mass density (298.15 K, x2 = 0.1249)?
**A.** Its mass density is 899.5 ± 0.23 kg/m3.

**Q.** What about the viscosity (298.15 K, x2 = 0.1258) of the same molecule?
**A.** The viscosity was 0.476 ± 0.011 mPa·s.

**Q.** What about the mass density (318.15 K, x2 = 0.0249) of the same molecule?
**A.** The mass density was 870.81 ± 0.26 kg/m3.

**Q.** What about the viscosity (318.15 K, x2 = 0.025) of the same molecule?
**A.** The viscosity was 0.362 ± 0.01 mPa·s.

**Q.** What about the viscosity (318.15 K, x2 = 0.0496) of the same molecule?
**A.** The viscosity was 0.368 ± 0.011 mPa·s.

**Q.** And the mass density (318.15 K, x2 = 0.0524)?
**A.** Its mass density is 871.8 ± 0.26 kg/m3.

**Q.** And the viscosity (318.15 K, x2 = 0.075)?
**A.** Its viscosity is 0.373 ± 0.009 mPa·s.

**Q.** What about the mass density (318.15 K, x2 = 0.0766) of the same molecule?
**A.** The mass density was 872.73 ± 0.26 kg/m3.

**Q.** And the viscosity (318.15 K, x2 = 0.0999)?
**A.** The viscosity was 0.379 ± 0.01 mPa·s.

**Q.** And the mass density (318.15 K, x2 = 0.1003)?
**A.** Its mass density is 873.94 ± 0.26 kg/m3.

**Q.** And the viscosity (318.15 K, x2 = 0.1254)?
**A.** Its viscosity is 0.385 ± 0.009 mPa·s.

**Q.** What about the mass density (318.15 K, x2 = 0.1255) of the same molecule?
**A.** The mass density was 875.08 ± 0.25 kg/m3.

**Q.** For `CCO` [ethanol] + O, which mass density (298.15 K, x2 = 0.0998) is on record?
**A.** Its mass density is 797.6 ± 0.34 kg/m3.

**Q.** And the viscosity (298.15 K, x2 = 0.2009)?
**A.** Its viscosity is 1.407 ± 0.033 mPa·s.

**Q.** What about the mass density (298.15 K, x2 = 0.2018) of the same molecule?
**A.** The mass density was 810.78 ± 0.32 kg/m3.

**Q.** What about the viscosity (298.15 K, x2 = 0.3001) of the same molecule?
**A.** The viscosity was 1.558 ± 0.037 mPa·s.

**Q.** And the mass density (298.15 K, x2 = 0.3085)?
**A.** The mass density was 826.73 ± 0.3 kg/m3.

**Q.** What about the viscosity (298.15 K, x2 = 0.4016) of the same molecule?
**A.** Its viscosity is 1.761 ± 0.042 mPa·s.

**Q.** What about the mass density (298.15 K, x2 = 0.4145) of the same molecule?
**A.** The mass density was 843.26 ± 0.28 kg/m3.

**Q.** What about the mass density (298.15 K, x2 = 0.5001) of the same molecule?
**A.** The mass density was 858.65 ± 0.27 kg/m3.

**Q.** What about the viscosity (298.15 K, x2 = 0.5001) of the same molecule?
**A.** The viscosity was 1.946 ± 0.046 mPa·s.

**Q.** And the viscosity (298.15 K, x2 = 0.6)?
**A.** The viscosity was 2.166 ± 0.051 mPa·s.

**Q.** What about the mass density (298.15 K, x2 = 0.6205) of the same molecule?
**A.** The mass density was 885.56 ± 0.24 kg/m3.

**Q.** What about the viscosity (298.15 K, x2 = 0.7) of the same molecule?
**A.** The viscosity was 2.342 ± 0.056 mPa·s.

**Q.** And the mass density (298.15 K, x2 = 0.7005)?
**A.** The mass density was 904.69 ± 0.22 kg/m3.

**Q.** What about the mass density (298.15 K, x2 = 0.7992) of the same molecule?
**A.** The mass density was 933.6 ± 0.18 kg/m3.

**Q.** And the viscosity (298.15 K, x2 = 0.8)?
**A.** Its viscosity is 2.39 ± 0.057 mPa·s.

**Q.** What about the viscosity (298.15 K, x2 = 0.9) of the same molecule?
**A.** Its viscosity is 1.923 ± 0.046 mPa·s.

**Q.** And the mass density (298.15 K, x2 = 0.9051)?
**A.** The mass density was 965.51 ± 0.15 kg/m3.

**Q.** And the mass density (318.15 K, x2 = 0.1)?
**A.** Its mass density is 780.53 ± 0.36 kg/m3.

**Q.** What about the viscosity (318.15 K, x2 = 0.1) of the same molecule?
**A.** The viscosity was 0.848 ± 0.02 mPa·s.

**Q.** What about the viscosity (318.15 K, x2 = 0.2) of the same molecule?
**A.** Its viscosity is 0.951 ± 0.023 mPa·s.

**Q.** What about the mass density (318.15 K, x2 = 0.201) of the same molecule?
**A.** Its mass density is 793.6 ± 0.34 kg/m3.

**Q.** And the mass density (318.15 K, x2 = 0.3001)?
**A.** The mass density was 807.71 ± 0.32 kg/m3.

**Q.** And the viscosity (318.15 K, x2 = 0.3001)?
**A.** Its viscosity is 1.003 ± 0.024 mPa·s.

**Q.** What about the mass density (318.15 K, x2 = 0.4004) of the same molecule?
**A.** Its mass density is 823.81 ± 0.31 kg/m3.

**Q.** And the viscosity (318.15 K, x2 = 0.4036)?
**A.** The viscosity was 1.09 ± 0.026 mPa·s.

**Q.** And the viscosity (318.15 K, x2 = 0.5002)?
**A.** Its viscosity is 1.168 ± 0.028 mPa·s.

**Q.** What about the mass density (318.15 K, x2 = 0.5003) of the same molecule?
**A.** Its mass density is 840.31 ± 0.29 kg/m3.

**Q.** What about the mass density (318.15 K, x2 = 0.5998) of the same molecule?
**A.** Its mass density is 863.31 ± 0.26 kg/m3.

**Q.** And the viscosity (318.15 K, x2 = 0.6)?
**A.** The viscosity was 1.243 ± 0.031 mPa·s.

**Q.** And the viscosity (318.15 K, x2 = 0.7)?
**A.** The viscosity was 1.298 ± 0.032 mPa·s.

**Q.** What about the mass density (318.15 K, x2 = 0.7001) of the same molecule?
**A.** The mass density was 888.76 ± 0.23 kg/m3.

**Q.** What about the mass density (318.15 K, x2 = 0.8001) of the same molecule?
**A.** Its mass density is 919.19 ± 0.2 kg/m3.

**Q.** And the viscosity (318.15 K, x2 = 0.8007)?
**A.** Its viscosity is 1.293 ± 0.035 mPa·s.

**Q.** What about the mass density (318.15 K, x2 = 0.9) of the same molecule?
**A.** Its mass density is 952.47 ± 0.17 kg/m3.

**Q.** What about the viscosity (318.15 K, x2 = 0.9) of the same molecule?
**A.** Its viscosity is 0.977 ± 0.024 mPa·s.

**Q.** Which results are given for `CCOC(C)=O` [ethyl acetate] + CCO?
**A.** mass density (298.15 K, x1 = 0.1): 801.5 ± 0.33 kg/m3; viscosity (298.15 K, x1 = 0.1): 0.848 ± 0.02 mPa·s; mass density (298.15 K, x1 = 0.1992): 816.25 ± 0.32 kg/m3; viscosity (298.15 K, x1 = 0.2): 0.707 ± 0.017 mPa·s; viscosity (298.15 K, x1 = 0.3): 0.614 ± 0.015 mPa·s; mass density (298.15 K, x1 = 0.3006): 829.52 ± 0.3 kg/m3; mass density (298.15 K, x1 = 0.3949): 840.61 ± 0.29 kg/m3; viscosity (298.15 K, x1 = 0.4): 0.56 ± 0.013 mPa·s; viscosity (298.15 K, x1 = 0.5): 0.513 ± 0.012 mPa·s; mass density (298.15 K, x1 = 0.5001): 852.04 ± 0.28 kg/m3; mass density (298.15 K, x1 = 0.5987): 861.64 ± 0.27 kg/m3; viscosity (298.15 K, x1 = 0.6): 0.488 ± 0.012 mPa·s; mass density (298.15 K, x1 = 0.7): 870.79 ± 0.26 kg/m3; viscosity (298.15 K, x1 = 0.7): 0.465 ± 0.011 mPa·s; mass density (298.15 K, x1 = 0.7981): 879.06 ± 0.25 kg/m3; viscosity (298.15 K, x1 = 0.8): 0.448 ± 0.011 mPa·s; mass density (298.15 K, x1 = 0.9): 886.96 ± 0.24 kg/m3; viscosity (298.15 K, x1 = 0.9): 0.434 ± 0.01 mPa·s; mass density (298.15 K, x1 = 0.9501): 890.81 ± 0.24 kg/m3; mass density (318.15 K, x1 = 0.1): 783.09 ± 0.35 kg/m3; viscosity (318.15 K, x1 = 0.1): 0.624 ± 0.015 mPa·s; viscosity (318.15 K, x1 = 0.2): 0.535 ± 0.013 mPa·s; mass density (318.15 K, x1 = 0.2001): 796.45 ± 0.34 kg/m3; mass density (318.15 K, x1 = 0.3): 808.31 ± 0.33 kg/m3; viscosity (318.15 K, x1 = 0.3007): 0.471 ± 0.012 mPa·s; viscosity (318.15 K, x1 = 0.4): 0.432 ± 0.01 mPa·s; mass density (318.15 K, x1 = 0.4001): 819.37 ± 0.31 kg/m3; mass density (318.15 K, x1 = 0.5): 829.53 ± 0.3 kg/m3; viscosity (318.15 K, x1 = 0.5): 0.412 ± 0.01 mPa·s; mass density (318.15 K, x1 = 0.6): 838.75 ± 0.29 kg/m3; viscosity (318.15 K, x1 = 0.6003): 0.387 ± 0.009 mPa·s; mass density (318.15 K, x1 = 0.7): 847.18 ± 0.28 kg/m3; viscosity (318.15 K, x1 = 0.7006): 0.374 ± 0.009 mPa·s; viscosity (318.15 K, x1 = 0.8): 0.364 ± 0.009 mPa·s; mass density (318.15 K, x1 = 0.8001): 855.16 ± 0.28 kg/m3; mass density (318.15 K, x1 = 0.8999): 862.6 ± 0.27 kg/m3; viscosity (318.15 K, x1 = 0.9): 0.36 ± 0.009 mPa·s
